Consider 42 molecules from patent publication US8354403B2, “Pyrrolidine derived beta 3 adrenergic receptor agonists” (Merck Sharp & Dohme Corp., priority 2009, dated 2013).

SMILES strings stand for the structures.

T1 sequence (P13945 whole entry): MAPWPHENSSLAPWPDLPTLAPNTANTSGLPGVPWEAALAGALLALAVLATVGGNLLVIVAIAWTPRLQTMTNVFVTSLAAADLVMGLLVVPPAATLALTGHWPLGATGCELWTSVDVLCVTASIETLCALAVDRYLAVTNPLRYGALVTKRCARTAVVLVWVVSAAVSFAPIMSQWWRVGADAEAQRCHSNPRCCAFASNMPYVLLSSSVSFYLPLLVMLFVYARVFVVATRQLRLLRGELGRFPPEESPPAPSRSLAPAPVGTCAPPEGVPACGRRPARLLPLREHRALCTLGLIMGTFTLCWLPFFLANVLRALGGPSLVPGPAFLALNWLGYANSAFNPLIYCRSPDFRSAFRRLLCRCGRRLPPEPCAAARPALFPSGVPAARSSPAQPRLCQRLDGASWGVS

The first assay has as its target T1, human β3 adrenergic receptor (Homo sapiens, UniProt P13945).
T1 construct: expressed in transfected cells; host or cells: Chinese hamster ovary (CHO) cells, stably transfected
Briefly: Beta-3 agonist in vitro functional assay: cAMP production (LANCE TR-FRET) in CHO cells stably transfected with the cloned β3 receptor. The assay is classed as cell-based. The conditions noted are these: Table 4; cAMP, CHO cells; read-out: Human β3 agonist functional activity. Put shortly: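 CHO cells stably expressing the cloned receptor, in HEPES-buffered HBSS with BSA and 0.6 mM IBMX, 6,000 cells/well, exposed to compound for 30 min at RT. cAMP read by LANCE TR-FRET against a cAMP standard curve. Isoproterenol defines maximal stimulation.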
Take `Cn1ncc2c1CN(C(=O)c1ccc(C[C@@H]3CC[C@H]([C@H](O)c4ccccc4)N3)cc1)C2` [Example 28]: the EC50 fell in the range of 100 to 999 nM.

With `C[C@@H]1CN(C(=O)c2ccc(C[C@@H]3CC[C@H]([C@H](O)c4ccccc4)N3)cc2)CC[C@@H]1n1cccn1` [Example 60], the EC50 lay in the range of 10 to 99.9 nM. For the molecule `COc1ccc2c(c1)C(=O)CC1(CCCN(C(=O)c3ccc(C[C@@H]4CC[C@H]([C@H](O)c5ccccc5)N4)cc3)C1)O2` (stereo partly drawn) [Example 43], the EC50 fell in the range of 10 to 99.9 nM. The same measure, in the same setting: then `CN(C)C1CCN(C(=O)c2ccc(C[C@@H]3CC[C@H]([C@H](O)c4ccccc4)N3)cc2)C1` (stereo partly drawn) [Example 9], with 100 to 999 nM.

The assay is the same for the next values; noted with them: Table 5; cAMP, CHO cells; read-out: Human β3 agonist functional activity.
`O=C(c1ccc(C[C@@H]2CC[C@H]([C@H](O)c3ccccc3)N2)cc1)N1CCC(Cc2ccccc2F)CC1` [Example 144]: the EC50 fell in the range of 10 to 99.9 nM. Same read-out and setting: then `CC(C)n1nnnc1C1CCN(C(=O)c2ccc(C[C@@H]3CC[C@H]([C@H](O)c4ccccc4)N3)cc2)CC1` [Example 109], with 1 to 9.9 nM; and `O=C(OCc1ccccc1)C1CCN(C(=O)c2ccc(C[C@@H]3CC[C@H]([C@H](O)c4ccccc4)N3)cc2)CC1` [Example 119], with 10 to 99.9 nM.

`O=C(c1ccc(C[C@@H]2CC[C@H]([C@H](O)c3ccccc3)N2)cc1)N1CCC(COc2ccncn2)CC1` [Example 162]: the EC50 was 10 to 99.9 nM. On the same count and under the same terms, then `Cc1nnnn1C1CCN(C(=O)c2ccc(C[C@@H]3CC[C@H]([C@H](O)c4ccccc4)N3)cc2)CC1` [Example 101], with 1 to 9.9 nM; and `Cc1cn(C2CCN(C(=O)c3ccc(C[C@@H]4CC[C@H]([C@H](O)c5ccccc5)N4)cc3)CC2)nn1` [Example 95], with 10 to 99.9 nM; and `Cc1cncnc1OC1CCN(C(=O)c2ccc(C[C@@H]3CC[C@H]([C@H](O)c4ccccc4)N3)cc2)CC1` [Example 153], with 100 to 999 nM. The same measure, in the same setting: to `O=C(c1ccc(C[C@@H]2CC[C@H]([C@H](O)c3ccccc3)N2)cc1)N1CCC(S(=O)(=O)O)CC1` [Example 141] belongs 10 to 99.9 nM.

Still in this assay, the particulars now being: Table 7; cAMP, CHO cells; ranges as given for Tables 6 and 7; read-out: Human β3 agonist functional activity.
Take `O=C(OCc1ccccc1)C1C2CN(C(=O)c3ccc(C[C@@H]4CC[C@H]([C@H](O)c5ccccc5)N4)cc3)CC21` (stereo partly drawn) [Example 229]: the EC50 is under 1 nM.

Staying with this assay, now noted: Table 8; Beta-3 agonist in vitro functional assay; read-out: Human β3 agonist functional activity.
Turning to `O=C1CC2(CCN(C(=O)c3ccc(C[C@@H]4CC[C@H]([C@H](O)c5ccccc5)N4)cc3)CC2)S(=O)(=O)c2sccc21` [Example 340], the EC50 lay within 1 to 9.9 nM.

As to `O=C(c1ccc(C[C@@H]2CC[C@H]([C@H](O)c3ccccc3)N2)cc1)N1CCC2(CC1)OCCS2(=O)=O` [Example 303], the EC50 fell in the range of 10 to 99.9 nM. With `CCN1CCC2(CCN(C(=O)c3ccc(C[C@@H]4CC[C@H]([C@H](O)c5ccccc5)N4)cc3)CC2)C1=O` [Example 252], the EC50 lay in the range of 100 to 999 nM. On the same count and under the same terms, then `COC(=O)C1CC2(CCN(C(=O)c3ccc(C[C@@H]4CC[C@H]([C@H](O)c5ccccc5)N4)cc3)CC2)c2ccccc21` (stereo partly drawn) [Example 320], with 10 to 99.9 nM; and `Cc1ccc(CC2(O)CCN(C(=O)c3ccc(C[C@@H]4CC[C@H]([C@H](O)c5ccccc5)N4)cc3)CC2)cc1` [Example 246], with 10 to 99.9 nM. As for `O=C(c1ccc(C[C@@H]2CC[C@H]([C@H](O)c3ccccc3)N2)cc1)N1CCC(F)(S(=O)(=O)c2ccc(F)cc2)CC1` [Example 240], the EC50 was in the range of 10 to 99.9 nM.

The assay is the same for the next values; noted with them: Table 9; Beta-3 agonist in vitro functional assay; read-out: Human β3 agonist functional activity.
For `COc1cccnc1N1CCN(C(=O)c2ccc(C[C@@H]3CC[C@H]([C@H](O)c4ccccc4)N3)cc2)CC1` [Example 361], the EC50 is 10 to 99.9 nM. With `O=C(c1ccc(C[C@@H]2CC[C@H]([C@H](O)c3ccccc3)N2)cc1)N1CCN(c2nccs2)CC1` [Example 378], the EC50 is 10 to 99.9 nM. On the same count and under the same terms, then `CC(c1cnccn1)N1CCN(C(=O)c2ccc(C[C@@H]3CC[C@H]([C@H](O)c4ccccc4)N3)cc2)CC1` (stereo partly drawn) [Example 428], with 10 to 99.9 nM; and `O=C(c1ccc(C[C@@H]2CC[C@H]([C@H](O)c3ccccc3)N2)cc1)N1CCN(Cc2nccs2)CC1` [Example 394], with 10 to 99.9 nM. Same read-out and setting: then `Cc1noc(C(C)N2CCN(C(=O)c3ccc(C[C@@H]4CC[C@H]([C@H](O)c5ccccc5)N4)cc3)CC2)n1` (stereo partly drawn) [Example 422], with 10 to 99.9 nM; and `O=C(O)CN1CCN(C(=O)c2ccc(C[C@@H]3CC[C@H]([C@H](O)c4ccccc4)N3)cc2)CC1` [Example 390], with 100 to 999 nM.

Staying with this assay, now noted: Table 10; Beta-3 agonist in vitro functional assay; read-out: Human β3 agonist functional activity.
`CC(C(=O)NCC(N)=O)N1CCN(C(=O)c2ccc(C[C@@H]3CC[C@H]([C@H](O)c4ccccc4)N3)cc2)CC1` (stereo partly drawn) [Example 445]: the EC50 fell in the range of 100 to 999 nM. Still for that read-out and setting: to `CC(C(=O)N1CCCCCC1)N1CCN(C(=O)c2ccc(C[C@@H]3CC[C@H]([C@H](O)c4ccccc4)N3)cc2)CC1` (stereo partly drawn) [Example 511] belongs 100 to 999 nM; to `Cc1c(CNC(=O)C(C)N2CCN(C(=O)c3ccc(C[C@@H]4CC[C@H]([C@H](O)c5ccccc5)N4)cc3)CC2)cnn1C` (stereo partly drawn) [Example 464], 10 to 99.9 nM; to `CC(C(=O)N1CCC(F)CC1)N1CCN(C(=O)c2ccc(C[C@@H]3CC[C@H]([C@H](O)c4ccccc4)N3)cc2)CC1` (stereo partly drawn) [Example 491], 10 to 99.9 nM. As to `CC(C(=O)NCc1nccn1C)N1CCN(C(=O)c2ccc(C[C@@H]3CC[C@H]([C@H](O)c4ccccc4)N3)cc2)CC1` (stereo partly drawn) [Example 463], the EC50 is 100 to 999 nM. On the same count and under the same terms, to `CC(C)C1CC(CNC(=O)C(C)N2CCN(C(=O)c3ccc(C[C@@H]4CC[C@H]([C@H](O)c5ccccc5)N4)cc3)CC2)C1` (stereo partly drawn) [Example 454] belongs 10 to 99.9 nM; to `CC(C(=O)NCc1ncco1)N1CCN(C(=O)c2ccc(C[C@@H]3CC[C@H]([C@H](O)c4ccccc4)N3)cc2)CC1` (stereo partly drawn) [Example 462], 10 to 99.9 nM. With `CC(C(=O)N1CCc2cnccc2C1)N1CCN(C(=O)c2ccc(C[C@@H]3CC[C@H]([C@H](O)c4ccccc4)N3)cc2)CC1` (stereo partly drawn) [Example 508], the EC50 fell in the range of 10 to 99.9 nM. On the same count and under the same terms, to `Cc1nonc1CN(C)C(=O)C(C)N1CCN(C(=O)c2ccc(C[C@@H]3CC[C@H]([C@H](O)c4ccccc4)N3)cc2)CC1` (stereo partly drawn) [Example 512] belongs 10 to 99.9 nM.

Still in this assay, the particulars now being: Table 11; cAMP, CHO cells; read-out: Human β3 agonist functional activity.
On to `C[C@H]1CN(Cc2ccccn2)CCN1C(=O)c1ccc(C[C@@H]2CC[C@H]([C@H](O)c3ccccc3)N2)cc1` [Example 530], for which the EC50 lay in the range of 10 to 99.9 nM. Still for that read-out and setting: then `C[C@@H](c1ccccn1)N1C2CCC1CN(C(=O)c1ccc(C[C@@H]3CC[C@H]([C@H](O)c4ccccc4)N3)cc1)C2` [Example 540], with 100 to 999 nM.

Staying with this assay, now noted: Table 12; human β3 functional activity given as ranges; read-out: Human β3 agonist functional activity.
Regarding `O=C(c1ccc(CC2CCC(C(O)c3ccccc3)N2)cc1)N1CCN(C2CCN(C3CC3)C2=O)CC1` (single isomer, unassigned) [Example 608], the EC50 was in the range of 10 to 99.9 nM. On to `O=C(c1ccc(C[C@@H]2CC[C@H]([C@H](O)c3ccccc3)N2)cc1)N1CCN(C2COc3cccnc32)CC1` (single isomer, unassigned) [Example 600], for which the EC50 was in the range of 1 to 9.9 nM. As for `O=C1CC(c2ccccc2)C2(CCN(C(=O)c3ccc(CC4CCC(C(O)c5cccnc5)N4)cc3)CC2)O1` (single isomer, unassigned) [Example 560], the EC50 lay within 1 to 9.9 nM. As for `CC(c1ccccc1F)N1CCN(C(=O)c2ccc(CC3CCC(C(O)c4ccccc4)N3)cc2)CC1` (single isomer, unassigned) [Example 573], the EC50 was 1 to 9.9 nM.

Still in this assay, the particulars now being: given as a range; cAMP, CHO cells; read-out: human β3 functional activity.
For `O=C(c1ccc(CC2CCC(C(O)c3ccccc3)N2)cc1)N1CCC2(CC1)CC(C1CC1)OC2=O` (single isomer, unassigned) [Ex. 554], the EC50 was 1 to 9.9 nM.

As to `O=C(c1ccc(C[C@@H]2CC[C@H]([C@H](O)c3ccccc3)N2)cc1)N1C[C@@H]2[C@H](C1)[C@H]2c1nnco1` [Example 170], the EC50 fell in the range of 1 to 9.9 nM.
